Results as given in PMC6646405, “A quantitative, high-throughput method identifies protein–glycan interactions via mass spectrometry” (Communications Biology, 2019).
Values joined by “and” are separate entries in the source; they are usually repeats but may differ in a detail not shown here. Equal values may be shown once.

Legend:
[1] = system: Maackia amurensis lectins (MAA); assay: CUPRA library screening and affinity, MAA; format: binding; conditions: 50uM MAA; mean of 4 DIi values, FigS3c
Experimental: Unless otherwise noted, the measurements were performed at 25 °C. […] We identified specific ligands from the depletion index (DIi, Eq. 1) – the change in the fractional abundance (Fi, Eq. 2) ratio of ligand i-bound and free ^UniPproxy ions upon addition of GBP. Prior to calculating Fi, we treated each mass spectrum with the Sliding Window Adducts Removal Method (SWARM)[18] to remove contributions to the abundance of ^UniPproxy -OS^mod complex ions from adducts, formed by the ESI process, of neighbouring complex ions (Supplementary Fig. 2). Shown in Fig. 2a is a summary of the DIi measured by CUPRA screening of the 66-component library against S4 (50 μM). As expected, the average DIi for this negative control is close to 1.0 (0.99 ± 0.03). In contrast, CUPRA screening against the positive controls produced decreases in DIi for one or more of the library components. […] Application of CUPRA to human CD22, part of an important class of Neu5Ac-binding GBPs implicated in both innate and adaptive immunity, correctly identified HMO08 as a ligand (Supplementary Fig. 4a). CUPRA screening of MAA at high concentration (50 μM) identified HMO03 and GA06 as ligands. […]
Using SWARM-treated mass spectra, DIi was calculated for each ligand from the ratio of the fractional abundances (Fi) of ligand (i)-bound and free ^UniPproxy ions in the presence (+GBP) and absence (-GBP) of GBP, Eqs. […]

[2] = molecular target: T1, human neuraminidase 3 (NEU3) (Homo sapiens, UniProt Q9UQ49); assay: Time-resolved CUPRA enzyme kinetics, NEU3; format: biochemical
T1 construct: made in house
T1 sequence (Q9UQ49 1-428): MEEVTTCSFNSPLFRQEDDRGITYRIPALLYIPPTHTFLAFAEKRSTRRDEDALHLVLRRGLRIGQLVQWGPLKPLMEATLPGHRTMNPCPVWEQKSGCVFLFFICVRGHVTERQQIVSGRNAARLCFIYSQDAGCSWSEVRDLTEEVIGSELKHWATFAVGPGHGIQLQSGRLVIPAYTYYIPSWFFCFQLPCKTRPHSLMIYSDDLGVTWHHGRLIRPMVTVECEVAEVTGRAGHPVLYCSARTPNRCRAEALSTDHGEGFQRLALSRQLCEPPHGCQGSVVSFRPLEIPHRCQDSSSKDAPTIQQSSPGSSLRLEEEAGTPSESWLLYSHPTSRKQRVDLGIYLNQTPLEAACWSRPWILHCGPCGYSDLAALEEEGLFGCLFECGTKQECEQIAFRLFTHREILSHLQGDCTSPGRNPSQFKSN
Experimental: To apply CUPRA in this capacity, two or more substrates of interest are introduced, as their corresponding OS^mod, to a solution containing the desired CAZyme. Changes in substrate concentrations, as well as those of the corresponding enzyme products, are determined from the relative abundances of OS^mod-bound ^UniPproxy measured by time-resolved ESI-MS. Because of the manner in which the substrate and product concentrations are measured, the assay is insensitive to differences in their ESI-MS response factors and, consequently, independent of the nature of the chemical modification catalyzed by the enzyme. As a result, time-resolved CUPRA eliminates the need for calibration curves or internal standards, which are generally required with ESI-MS-based enzyme kinetics assays.
Two glycosyl hydrolases, human neuraminidase 2 (NEU2) and 3 (NEU3), which preferentially cleave α2-3-linked Neu5Ac residues, were used to illustrate the ease with which time-resolved CUPRA can establish substrate specificities. We incubated libraries of the Neu5Ac-containing OS^mod with NEU2 (Fig. 2d) or NEU3 (Fig. 2e) and monitored their conversion to the corresponding desialylated OS^mod products at pH 7 and 25 °C. […] All OS^mod containing terminal α2-3-linked Neu5Ac were substrates of NEU3, with initial rates that are 10–50% that of HMO03. […]

[3] = molecular target: streptavidin homotetramer (S4) (Streptomyces avidinii, UniProt P22629); assay: CUPRA library screening against negative control streptavidin; format: binding; set-up: key: ratio change on GBP addition; ~1.0 = no binding (negative control); conditions: depletion index, 50 μM streptavidin
[4] = molecular target: Cholera toxin B subunit homopentamer (CTB5) (Vibrio cholerae serotype O1, UniProt P01556); format: binding
Sequence of Cholera toxin B subunit homopentamer (CTB5) (P01556 22-124 limits assumed): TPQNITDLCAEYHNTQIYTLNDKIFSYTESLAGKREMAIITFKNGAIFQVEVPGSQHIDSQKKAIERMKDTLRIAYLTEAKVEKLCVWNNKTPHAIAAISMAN

Sequence of streptavidin homotetramer (S4) (P22629 25-183): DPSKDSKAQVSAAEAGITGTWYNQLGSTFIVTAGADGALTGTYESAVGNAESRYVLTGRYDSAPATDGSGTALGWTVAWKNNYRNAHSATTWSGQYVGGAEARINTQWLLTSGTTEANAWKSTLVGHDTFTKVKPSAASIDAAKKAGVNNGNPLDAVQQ

For `CC(=O)N[C@H]1[C@H](O[C@@H]2[C@H](O[C@]3(C(=O)O)C[C@H](O)[C@@H](NC(C)=O)[C@H]([C@H](O)[C@@H](CO)O[C@]4(C(=O)O)C[C@H](O)[C@@H](NC(C)=O)[C@H]([C@H](O)[C@H](O)CO)O4)O3)[C@@H](O)[C@H](O[C@H]3[C@H](O)[C@@H](O)[C@H](N(CCOCCOCCNC(=O)[C@H](Cc4ccccc4)NC(=O)[C@H](Cc4ccccc4)NC(=O)CCCC(=O)NCCc4ccc(S(N)(=O)=O)cc4)C(C)=O)O[C@@H]3CO)O[C@@H]2CO)O[C@H](CO)[C@H](O)[C@@H]1O` [GA10, GalNAcβ1-4(Neu5Acα2-8 Neu5Acα2-3)Galβ1-4Glc-CL], which “average DI” value [1] is on record?
The value was 1.024.

And the “substrate specificity of NEU3” value ([2]; pH 7, 25 °C)?
Its value is “substrates for NEU3”.

What about the “Relative activity NEU3” value ([2]; time-resolved CUPRA, 200 mM aqueous ammonium acetate pH 7, 25 °C, relative to HMO03) of the same molecule?
The value was 0.292.

And the “average DI” value ([3]; mean of 4)?
The value was 0.9828.

And the “DIi(50uM S4)” value ([3]; measurement 1 of 4)?
Its value is 0.9829.

And the “DIi(50uM S4)” value ([3]; measurement 2 of 4)?
The value was 0.9821.

And the “DIi(50uM S4)” value ([3]; measurement 3 of 4)?
The value was 0.9835.

What about the “DIi(50uM S4)” value ([3]; measurement 4 of 4) of the same molecule?
The value was 0.9826.

What about the “DIi(2uM CTB5)” value [4] of the same molecule?
The value was 1.017 and 1.023 and 1.026 and 1.032.

And the “DIi(10uM CTB5)” value [4]?
Its value is 1.049 and 1.055 and 1.045 and 1.05.

What about the “DIi(10uM CTB5 at 0C)” value [4] of the same molecule?
Its value is 1.029 and 1.025 and 1.026 and 1.021.

And the “average DI” value [4]?
The value was 1.025 and 1.0497.
